Measured values reported in patent EP0657176B1, “Composition containing a water-insoluble or slightly water-soluble compound with enhanced water-solubility” (priority 1993, dated 1995).
Values after ≈ are worked out from the molar mass of the structure shown. Where two headings read alike, the source gives them in different places.

Columns and labels:
rats = assay: Toxicity in rats, intravenous administration every day for 2 weeks (Experiment 3); assay type: in vivo
Method: Four male rats were used. β-CyD-G2-COOH was dissolved in sterilized water. The solution was intravenously administered to rats in daily doses of 1 ml/kg, 3 ml/kg, and 10 ml/kg (containing β-CyD-G2-COOH in amounts of 100 mg/kg, 300 mg/kg, and 1000 mg/kg, respectively) every day for 2 weeks.
As a control, the toxicity of β-CyD-G2 was studied according to the same manner.

[1] = Water-solubility of the antineoplastic agent alone or combined with β-CyD-G2-COONa or β-CyD (Example 1, HPLC); assay type: physicochemical; conditions: 6-O-(N-chloroacetylcarbamoyl)fumagillol in water, with β-CyD-G2-COONa or β-CyD 1:2 (mol ratio), lyophilized powder 100 mg + water 1 ml, alone: shaken at 25 °C for 4 hours, 0.22 µm filter, read-out: solubilities of the antineoplastic agent
Method: The antineoplastic agent 6-O-(N-chloroacetylcarbamoyl)fumagillol (100 mg) was dissolved in ethanol (4 ml). […] The aqueous solution was added to the ethanol solution and mixed with it with stirring. The resulting solution was lyophilized in vacuo to give powder. Water (1 ml) was added to the powder (100 mg) to obtain a homogeneous aqueous solution, i.e., a composition of the present invention.
On the other hand, the antineoplastic agent alone was added to water, and the mixture was vigorously shaken at 25 °C for 4 hours and filtered through a membrane filter of 0.22 µm.
The antineoplastic agent in the above homogeneous aqueous solution and filtrate was determined by high performance liquid chromatography (HPLC). As a result, the solubilities in Table 1 were obtained.

[2] = Water-solubility of the antineoplastic agent alone or combined with α-CyD-G2-COONa or α-CyD (Example 2, HPLC); assay type: physicochemical; conditions: 6-O-(N-chloroacetylcarbamoyl)fumagillol in water, with α-CyD-G2-COONa or α-CyD 1:2 (mol ratio), lyophilized powder 100 mg + water 1 ml, alone: shaken at 25 °C for 4 hours, 0.22 µm filter, read-out: solubilities of the antineoplastic agent
Method: (§1) The aqueous solution was added to the ethanol solution and mixed with it with stirring. The resulting solution was lyophilized in vacuo to give powder. Water (1 ml) was added to the powder (100 mg) to obtain a homogeneous aqueous solution, i.e., a composition of the present invention. On the other hand, the antineoplastic agent alone was added to water, and the mixture was vigorously shaken at 25 °C for 4 hours and filtered through a membrane filter of 0.22 µm.
The antineoplastic agent in the above homogeneous aqueous solution and filtrate was determined by high performance liquid chromatography (HPLC). As a result, the solubilities in Table 2 were obtained.

[3] = Water-solubility of the cephalosporin antibiotic alone or combined with β-CyD-G2-COONa or β-CyD (Example 3, HPLC); assay type: physicochemical; conditions: cephalosporin antibiotic (free form) in water, with β-CyD-G2-COONa or β-CyD 1:2 (mol ratio), lyophilized powder 100 mg + water 1 ml, alone: shaken at 25 °C for 8 hours, read-out: solubilities of the antibiotic
Method: as §1, with “antibiotic” for “antineoplastic agent”, “8” for “4”
The antibiotic in the above homogeneous aqueous solution and filtrate was determined by high performance liquid chromatography (HPLC). As a result, the solubilities in Table 3 were obtained.

[4] = Hemolytic effect on rabbit erythrocytes (Experiment 1, Fig. 1); conditions: rabbit, erythrocytes, phosphate buffer, pH 7.4
Method: (§4) To this was added sodium 6-O-cyclomaltoheptaosyl-(6→1)-α-D-glucosyl-(4→1)-O-α-D-glucuronate (β-CyD-G2-COONa) was added so that the concentration thereof became 1 to 40 mM. The mixture was shaken at 37°C for 30 minutes and then centrifuged to separate the supernatant. […] The amount of hemoglobin bursted in water instead of isotonic phosphate buffer was used as a standard (100%), and the relative ratio to it was indicated as a hemolytic ratio.
(§5) Further, according to the same manner as that described above except using β-cyclodextrin (β-CyD) instead of β-CyD-G2-COONa, the hemolytic ratio was determined.
(§6) (Control: β-cylodextrin 4 mM, 6-O-α-D-glucosyl-(1→4)-α-D-glucosyl-β-cyclodextrin 8 mM)

Pullulanase = target: T1, Pullulanase (Klebsiella pneumoniae, UniProt P07206); assay: Stability to enzymatic treatment with pullulanase (Experiment 4, Fig. 5); assay type: in vitro ADME; conditions: 10 mM aqueous cyclodextrin, pullulanase 10 unit/ml, 37°C, 0 to 120 minutes; read-out: decomposed in the enzymatic treatment with pullulanase
T1 construct: purchased
T1 sequence (P07206 20-1090): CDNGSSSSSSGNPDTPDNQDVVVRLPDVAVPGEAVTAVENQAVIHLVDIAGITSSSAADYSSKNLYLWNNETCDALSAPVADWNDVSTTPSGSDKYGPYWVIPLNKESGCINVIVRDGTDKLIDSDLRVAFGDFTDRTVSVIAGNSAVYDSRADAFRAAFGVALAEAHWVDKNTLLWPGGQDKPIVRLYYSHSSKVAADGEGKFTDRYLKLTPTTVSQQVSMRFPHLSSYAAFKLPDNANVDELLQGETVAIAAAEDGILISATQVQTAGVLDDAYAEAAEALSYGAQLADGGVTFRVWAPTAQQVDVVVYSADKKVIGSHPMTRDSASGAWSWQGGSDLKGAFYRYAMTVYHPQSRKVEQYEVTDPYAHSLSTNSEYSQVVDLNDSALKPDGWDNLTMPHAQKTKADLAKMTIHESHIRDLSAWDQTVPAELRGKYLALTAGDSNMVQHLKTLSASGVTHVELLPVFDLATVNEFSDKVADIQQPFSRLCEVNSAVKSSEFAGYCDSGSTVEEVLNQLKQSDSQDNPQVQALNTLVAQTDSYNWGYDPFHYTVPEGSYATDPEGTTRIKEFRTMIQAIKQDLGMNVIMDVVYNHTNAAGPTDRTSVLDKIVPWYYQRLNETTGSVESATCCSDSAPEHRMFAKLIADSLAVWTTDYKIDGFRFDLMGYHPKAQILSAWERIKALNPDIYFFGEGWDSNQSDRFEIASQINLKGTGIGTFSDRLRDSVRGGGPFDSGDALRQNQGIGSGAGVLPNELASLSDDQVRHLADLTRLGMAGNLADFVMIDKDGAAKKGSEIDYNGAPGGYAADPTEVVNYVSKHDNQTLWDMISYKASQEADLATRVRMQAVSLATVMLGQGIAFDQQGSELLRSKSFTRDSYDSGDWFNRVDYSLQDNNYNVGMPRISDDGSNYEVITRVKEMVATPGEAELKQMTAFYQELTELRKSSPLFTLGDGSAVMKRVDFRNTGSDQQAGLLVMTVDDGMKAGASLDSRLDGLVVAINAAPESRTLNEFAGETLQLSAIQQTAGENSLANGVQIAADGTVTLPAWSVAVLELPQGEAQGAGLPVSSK
Method: (§2) As a control, 6-O-α-maltosyl-β-cyclodextrin was used. Test method: Each of prescribed amounts of the following enzymes was added to a 10 mM aqueous solution of cyclodextrin to be tested. The mixture was allowed to stand in a water bath at 37°C. 50 µl of each mixture was sampled, and the enzyme was inactivated by heating it at 100°C for 15 minutes, centrifuged at 15,000 rpm for 5 minutes, filtered through Millipore USY-1 (differential molecular weight: 10,000), diluted 10 times and subjected to HPLC analysis. HPLC analytic conditions: • Column; NH2P-50 (Asahipak) • Mobile phase; CH3CN:H2O=48:52 to which 0.005M PIC reagent was added. • Flow rate; 0.8 ml/minute • Detection; RI The ratio of the remaining cyclodextrin at 0 to 120 minutes was determined from the above HPLC analysis of each sample.
(§3) Each unit is as described in the instruction book of the enzyme obtained from above market. Results: Changes of the ratio of remaining 6-O-α-D-glucuronyl(1→4)-α-D-glucosyl-β-cyclodextrin sodium salt (branched cyclodextrin-carboxylic acid salt) and 6-O-α-maltosyl-β-cyclodextrin (branched cyclodextrin) with the passage of time are shown in Figures 3 to 6. In the figures, black triangles represent the branched cyclodextrin-carboxylic acid salt, and black dots represent the branched cyclodextrin.

[5] = cited from earlier work
[6] = Water-solubility of the cyclodextrins themselves
[7] = Stability to acid: half-life in 0.1N HCl solution
Human erythrocytes = assay: Hemolytic effect on human erythrocytes (Experiment 2, Fig. 2); assay type: cell-based; conditions: 0.1M isotonic phosphate buffer (pH 7.4), 5 to 30 mM, 37°C, 30 minutes
Method: Human erythrocytes were added to 0.1M isotonic phosphate buffer (pH 7.4) to prepare a 20% suspension. The 20% erythrocyte suspension (100 µl) was added to an isotonic buffer (4 ml) containing β-CyD-G2-COONa in a concentration of 5 to 30 mM.
The results are in Figure 2 together with the above results for comparison.

Glucoamylase = target: T2, Glucoamylase (Rhizopus oryzae, UniProt P07683); assay type: in vitro ADME, Rhizopus sp.; conditions: 10 mM aqueous cyclodextrin, glucoamylase 2 unit/ml, 37°C, 0 to 120 minutes; compared with 6-O-α-maltosyl-β-cyclodextrin
T2 construct: purchased
T2 sequence (P07683 26-604): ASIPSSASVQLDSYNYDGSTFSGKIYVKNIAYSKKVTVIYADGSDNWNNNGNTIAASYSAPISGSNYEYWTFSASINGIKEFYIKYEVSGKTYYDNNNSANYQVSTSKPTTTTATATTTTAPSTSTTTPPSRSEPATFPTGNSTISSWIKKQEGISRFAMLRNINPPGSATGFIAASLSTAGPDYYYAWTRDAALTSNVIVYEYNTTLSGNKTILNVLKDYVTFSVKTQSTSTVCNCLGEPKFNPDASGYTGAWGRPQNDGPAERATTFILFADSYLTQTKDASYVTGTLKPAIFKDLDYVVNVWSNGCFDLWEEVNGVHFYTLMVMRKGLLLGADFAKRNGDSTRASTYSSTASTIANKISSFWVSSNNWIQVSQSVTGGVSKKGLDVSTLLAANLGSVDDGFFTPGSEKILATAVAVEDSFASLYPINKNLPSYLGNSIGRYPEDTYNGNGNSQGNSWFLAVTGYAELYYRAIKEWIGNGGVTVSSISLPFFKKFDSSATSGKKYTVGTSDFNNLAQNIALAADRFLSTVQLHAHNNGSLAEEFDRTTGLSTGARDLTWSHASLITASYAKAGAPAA
Method: as §2, §3

β-Glucuronidase = target: T3, β-Glucuronidase (Bos taurus, UniProt A3KMY8); assay: Stability to enzymatic treatment with β-glucuronidase (Experiment 4, Fig. 6); assay type: in vitro ADME, Calf liver; conditions: 10 mM aqueous cyclodextrin, β-glucuronidase 700 unit/ml, 37°C, 0 to 120 minutes; compared with 6-O-α-maltosyl-β-cyclodextrin
T3 construct: purchased; host or cells: calf liver (per earlier reading)
T3 sequence (A3KMY8 1-652): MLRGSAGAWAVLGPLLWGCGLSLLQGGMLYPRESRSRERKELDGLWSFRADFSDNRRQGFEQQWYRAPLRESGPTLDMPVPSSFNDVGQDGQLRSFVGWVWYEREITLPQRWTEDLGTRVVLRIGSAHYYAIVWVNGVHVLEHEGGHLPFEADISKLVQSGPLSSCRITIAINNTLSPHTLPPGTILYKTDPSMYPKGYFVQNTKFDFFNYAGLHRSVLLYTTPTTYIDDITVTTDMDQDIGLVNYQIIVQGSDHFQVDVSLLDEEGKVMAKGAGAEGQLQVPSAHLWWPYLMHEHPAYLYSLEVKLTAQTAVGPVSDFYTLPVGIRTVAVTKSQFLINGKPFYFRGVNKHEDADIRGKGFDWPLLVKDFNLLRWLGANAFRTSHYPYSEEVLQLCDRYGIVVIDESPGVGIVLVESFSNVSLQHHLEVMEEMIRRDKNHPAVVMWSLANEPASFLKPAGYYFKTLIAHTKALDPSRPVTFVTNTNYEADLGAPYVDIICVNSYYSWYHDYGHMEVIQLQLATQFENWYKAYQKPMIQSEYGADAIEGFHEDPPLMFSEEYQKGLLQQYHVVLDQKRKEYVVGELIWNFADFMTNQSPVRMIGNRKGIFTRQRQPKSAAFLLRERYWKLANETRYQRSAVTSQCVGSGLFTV
Method: as §2, §3

Rabbit erythrocytes [8] = conditions: phosphate buffer, pH 7.4
Method: as §4, §5, §6

[9] = water
Rabbit erythrocytes [10] = assay: Hemolytic effect on rabbit erythrocytes (Experiment 1, Fig. 1); conditions: 0.25% rabbit erythrocyte suspension, 10 mM isotonic phosphate buffer (pH 7.4), 1 to 40 mM, 37°C, 30 minutes
Method: as §4, §5, §6

[11] = male rats, 100 mg/kg, 300 mg/kg and 1000 mg/kg every day for 2 weeks

Q: What does the source list for “6-O-cyclomaltoheptaosyl-(6→1)-α-D-glucosyl-(4→1)-O-α-D-glucuronic acid [β-CyD-G2-COOH]”?
A: Pathological and histological examination (rats; [11]): no serious findings such as necrosis; death (rats; [11]): No rats died; general appearance, diet intake amount, body weight, urine sediments, hematological examination (rats; [11]): No abnormality was observed

Q: Which solubility [1] does the source give for `COC1C(OC(=O)NC(=O)CCl)CCC2(CO2)C1C1(C)OC1CC=C(C)C` (centres unmarked) [Antineoplastic agent alone] here?
A: 1.8 mg/mL

Q: And the solubility [2]?
A: 1.8 mg/mL

Q: What about the solubility [3] of the same compound?
A: 2.5 mg/mL

Q: With `OC[C@H]1O[C@@H]2O[C@H]3[C@H](O)[C@@H](O)[C@@H](O[C@H]4[C@H](O)[C@@H](O)[C@@H](O[C@H]5[C@H](O)[C@@H](O)[C@@H](O[C@H]6[C@H](O)[C@@H](O)[C@@H](O[C@H]7[C@H](O)[C@@H](O)[C@@H](O[C@H]8[C@H](O)[C@@H](O)[C@@H](O[C@H]1[C@H](O)[C@H]2O)O[C@@H]8CO)O[C@@H]7CO)O[C@@H]6CO)O[C@@H]5CO)O[C@@H]4CO)O[C@@H]3CO` [β-CyD, β-cyclodextrin] as the compound, how does the HC50 [4] read?
A: 4 mM

Q: What does the source list for `OC[C@H]1O[C@H](O[C@H]2[C@H](O)[C@@H](O)[C@@H](OC[C@H]3O[C@@H]4O[C@H]5[C@H](O)[C@@H](O)[C@@H](O[C@H]6[C@H](O)[C@@H](O)[C@@H](O[C@H]7[C@H](O)[C@@H](O)[C@@H](O[C@H]8[C@H](O)[C@@H](O)[C@@H](O[C@H]9[C@H](O)[C@@H](O)[C@@H](O[C@H]%10[C@H](O)[C@@H](O)[C@@H](O[C@H]3[C@H](O)[C@H]4O)O[C@@H]%10CO)O[C@@H]9CO)O[C@@H]8CO)O[C@@H]7CO)O[C@@H]6CO)O[C@@H]5CO)O[C@@H]2CO)[C@H](O)[C@@H](O)[C@@H]1O` [β-CyD-G2, 6-O-α-maltosyl-β-cyclodextrin]?
A: Pathological and histological examination (rats; rats, every day for 2 weeks, 300 mg/kg and 1000 mg/kg groups): renal tubule epithelium vacuolation and necrosis; Urine examination (rats; rats, every day for 2 weeks, 1000 mg/kg group): occult blood and an increase in LDH and NAG; observed signs (general appearance) (rats; rats, every day for 2 weeks, groups of 300 mg/kg and 1000 mg/kg): Auricle flush and peripheral swelling in the extremities; metabolised at 2 h, 10000 µM (Pullulanase): ~60%; water-solubility relative to that of β-cyclodextrin ([5]; stated as known): several tens of times that of β-cyclodextrin; solubility [6]: 1500 mg/mL (≈ 1030 mM); half-life [7]: 5 h; HC50 [4]: 8 mM

Q: Which “hemolytic effect (hemolytic ratio vs cyclodextrin concentration, Figure 2)” value (Human erythrocytes) does the source give for “sodium 6-O-cyclomaltoheptaosyl-(6→1)-α-D-glucosyl-(4→1)-O-α-D-glucuronate [β-CyD-G2-COONa]” here?
A: much less hemolytic effect than that of β-CyD, β-CyD-G1 or β-CyD-G2

Q: What about the “stability to the enzymatic treatment with glucoamylase” value (Glucoamylase) of the same compound?
A: more stable

Q: What about the “stability to the enzymatic treatment with β-glucuronidase” value (β-Glucuronidase) of the same compound?
A: more stable

Q: And the HC50 (Rabbit erythrocytes [8])?
A: 11 mM

Q: And the solubility [9]?
A: > 200 g/100 ml

Q: And the “Half-life in 0.1N HCl solution at 60°C” value?
A: 8 h

Q: And the “hemolytic effect (hemolytic ratio vs cyclodextrin concentration, Figure 1)” value (Rabbit erythrocytes [10])?
A: much less hemolytic effect than that of β-CyD

Q: With α-cyclodextrin [α-CyD] as the compound, how does the water-solubilities ([5]; water) read?
A: about 15%
